{"source": "patent US20060013796A1", "about": "“Hair and/or scalp treatment composition” (priority 2002, published 2006)", "key": {"[1]": {"system": "Malassezia furfur CBS 7019", "test": "MIC of oils and their components, microtitre plate assay", "type": "cell-based", "conditions": "substance alone", "protocol": "(§1) Studies into anti-microbial action were performed using a microtitre plate cross-assay in triplicate against the type strain Malassezia furfur CBS 7019. The Fractional Inhibitory Concentration (FIC), the concentration of biocide in a mixture of biocides that inhibits growth, was determined for natural oils and a number of terpenoid components with the conventional anti-dandruff/anti-fungal agents."}, "[2]": {"system": "Malassezia furfur CBS 7019", "test": "Microtitre plate cross-assay, Fractional Inhibitory Concentration (FIC) with conventional anti-dandruff/anti-fungal agents", "type": "cell-based", "conditions": "M. furfur CBS 7019; for FIC interpretation with Octopirox / FIC values with Octopirox: combination with Octopirox; for FIC values with Octopirox / FIC values with climbazole / FIC values with zinc pyrithione (ZnPTO): triplicate; for FIC interpretation with climbazole / FIC values with climbazole: combination with climbazole; for FIC interpretation with zinc pyrithione (ZnPTO) / FIC values with zinc pyrithione (ZnPTO): combination with zinc pyrithione (ZnPTO)", "protocol": "FIC values are for activity against M.furfur, such as CBS 7019, and are calculated in ways well-known in the art.\nas §1\nThe definition of synergy is a combination of biocides in which the effect is greater than the sum of the expected effects of the individual components."}}}
{"smiles": "C=CCc1ccc(OC)cc1", "note": "[4-allylanisole]", "values": [{"measurement": "MIC values for oils and their components", "setting": "[1]", "value": 0.25, "unit": "%"}, {"measurement": "FIC interpretation with Octopirox", "setting": "[2]", "value": "antagonistic (>1 antagonistic)"}, {"measurement": "FIC values with Octopirox", "setting": "[2]", "value": 2}, {"measurement": "FIC interpretation with climbazole", "setting": "[2]", "value": "antagonistic (>1 antagonistic)"}, {"measurement": "FIC values with climbazole", "setting": "[2]", "value": 2}, {"measurement": "FIC interpretation with zinc pyrithione (ZnPTO)", "setting": "[2]", "value": "synergy (<1 synergy)"}, {"measurement": "FIC values with zinc pyrithione (ZnPTO)", "setting": "[2]", "value": 0.725}]}
{"smiles": "C=C1C2CCC(C2)C1(C)C", "note": "(centres unmarked) [Camphene]", "values": [{"measurement": "MIC values for oils and their components", "setting": "[1]", "value": ">8", "unit": "%"}]}
{"smiles": "CC12CCC(CC1)C(C)(C)O2", "note": "[Cineole]", "values": [{"measurement": "MIC values for oils and their components", "setting": "[1]", "value": 1, "unit": "%"}]}
{"smiles": "C=CCc1ccc(O)c(OC)c1", "note": "[Eugenol, eugenol]", "values": [{"measurement": "MIC values for oils and their components", "setting": "[1]", "value": 0.01, "unit": "%"}, {"measurement": "FIC interpretation with Octopirox", "setting": "[2]", "value": "synergy (<1 synergy)"}, {"measurement": "FIC values with Octopirox", "setting": "[2]", "value": 0.567}, {"measurement": "FIC interpretation with climbazole", "setting": "[2]", "value": "synergy (<1 synergy)"}, {"measurement": "FIC values with climbazole", "setting": "[2]", "value": 0.56}, {"measurement": "FIC interpretation with zinc pyrithione (ZnPTO)", "setting": "[2]", "value": "synergy (<1 synergy)"}, {"measurement": "FIC values with zinc pyrithione (ZnPTO)", "setting": "[2]", "value": 0.625}]}
{"smiles": "C=C(C)[C@H]1CC=C(C)CC1", "note": "[Limonene]", "values": [{"measurement": "MIC values for oils and their components", "setting": "[1]", "value": ">8", "unit": "%"}, {"measurement": "FIC interpretation with Octopirox", "setting": "[2]", "value": "antagonistic (>1 antagonistic)"}, {"measurement": "FIC values with Octopirox", "setting": "[2]", "value": 2}, {"measurement": "FIC interpretation with climbazole", "setting": "[2]", "value": "antagonistic (>1 antagonistic)"}, {"measurement": "FIC values with climbazole", "setting": "[2]", "value": 2}, {"measurement": "FIC interpretation with zinc pyrithione (ZnPTO)", "setting": "[2]", "value": "antagonistic (>1 antagonistic)"}, {"measurement": "FIC values with zinc pyrithione (ZnPTO)", "setting": "[2]", "value": 1.5}]}
{"smiles": "C=CC(C)(O)CCC=C(C)C", "note": "(centres unmarked) [Linalool, linalool]", "values": [{"measurement": "MIC values for oils and their components", "setting": "[1]", "value": 0.01, "unit": "%"}, {"measurement": "FIC interpretation with Octopirox", "setting": "[2]", "value": "antagonistic (>1 antagonistic)"}, {"measurement": "FIC values with Octopirox", "setting": "[2]", "value": 2}, {"measurement": "FIC values with climbazole", "setting": "[2]", "value": 0.417}, {"measurement": "FIC interpretation with zinc pyrithione (ZnPTO)", "setting": "[2]", "value": "synergy (<1 synergy)"}, {"measurement": "FIC values with zinc pyrithione (ZnPTO)", "setting": "[2]", "value": 0.625}]}
{"smiles": "CC1=CCC(O)(C(C)C)CC1", "note": "(centres unmarked) [terpinen-4-ol]", "values": [{"measurement": "FIC interpretation with Octopirox", "setting": "[2]", "value": "antagonistic (>1 antagonistic)"}, {"measurement": "FIC values with Octopirox", "setting": "[2]", "value": 2}, {"measurement": "FIC values with climbazole", "setting": "[2]", "value": 0.37}, {"measurement": "FIC interpretation with zinc pyrithione (ZnPTO)", "setting": "[2]", "value": "synergy (<1 synergy)"}, {"measurement": "FIC values with zinc pyrithione (ZnPTO)", "setting": "[2]", "value": 0.83}]}
{"smiles": "CC1=CCC2CC1C2(C)C", "note": "(stereo not drawn) [α-pinene]", "values": [{"measurement": "MIC values for oils and their components", "setting": "[1]", "value": 0.3, "unit": "%"}, {"measurement": "FIC interpretation with Octopirox", "setting": "[2]", "value": "antagonistic (>1 antagonistic)"}, {"measurement": "FIC values with Octopirox", "setting": "[2]", "value": 2}, {"measurement": "FIC interpretation with climbazole", "setting": "[2]", "value": "antagonistic (>1 antagonistic)"}, {"measurement": "FIC values with climbazole", "setting": "[2]", "value": 2}, {"measurement": "FIC interpretation with zinc pyrithione (ZnPTO)", "setting": "[2]", "value": "antagonistic (>1 antagonistic)"}, {"measurement": "FIC values with zinc pyrithione (ZnPTO)", "setting": "[2]", "value": 1.42}]}
{"smiles": "CC1=CCC(C(C)(C)O)CC1", "note": "(stereo not drawn) [α-terpineol, alpha-terpineol]", "values": [{"measurement": "MIC values for oils and their components", "setting": "[1]", "value": 0.02, "unit": "%"}, {"measurement": "FIC values with Octopirox", "setting": "[2]", "value": 2}, {"measurement": "FIC interpretation with climbazole", "setting": "[2]", "value": "synergy (<1 synergy)"}, {"measurement": "FIC values with climbazole", "setting": "[2]", "value": 0.625}, {"measurement": "FIC interpretation with zinc pyrithione (ZnPTO)", "setting": "[2]", "value": "antagonistic (>1 antagonistic)"}, {"measurement": "FIC values with zinc pyrithione (ZnPTO)", "setting": "[2]", "value": 2}]}
